Columns and labels:
Assay type in all cases: biochemical
FLAG-tagged PRMT3 = biological target: T1, FLAG-tagged PRMT3 (Homo sapiens, UniProt O60678); test: Fluorescence-based in vitro PRMT assay (F-PRMT assay), PRMT3; details: vs solvent control = 100%
T1 construct: The complete ORFs of human PRMT3 and PRMT6 were inserted; made in house; host or cells: Sf9 insect cells (baculovirus)
Description: (§1) To evaluate the effects of the selected candidate molecules on the catalytic activity of type I enzymes, we employed a quantitative fluorescence-based in vitro PRMT activity (F-PRMT) assay using recombinant FLAG-tagged PRMT proteins expressed and affinity-purified from baculovirus-infected Sf9 cells (SI Figure S1, SI Figure S2A).
(§2) Human cell lines (PaTu8988T, PANC-1) were obtained from ATCC (American Type Culture Collection) and cultured in DMEM supplemented with 10% fetal calf serum (FCS, Gibco/BRL), 1% penicillin/streptomycin at 37 °C and 5% CO2. […] For PRMT1 inhibition, cells were treated with type I PRMT inhibitor MS023 hydrochloride (Biomol). For induction of genotoxic stress, cells were treated with gemcitabine (LC Laboratories). […] The following plasmids were used: pFASTBAC-FLAG-rat PRMT1, pFASTBAC-FLAG-mouse PRMT4, and pGEX-GAR. The complete ORFs of human PRMT3 and PRMT6 were inserted into the pFASTBAC HT-3xFLAG B vector via BamHI/HindIII and BamHI/XhoI sites, respectively.
(§3) For PRMT protein expression in insect cells, recombinant baculovirus (bacmid) was generated using the Bac-to-Bac baculovirus system (Invitrogen). Sf9 cells were transfected with bacmid DNA using X-tremeGENE HP DNA transfection reagent (Sigma-Aldrich) according to the manufacturer's instructions. After 3–5 days, supernatants were collected, filtered, and used to infect Sf9 cells to amplify the virus. After 2 rounds of virus amplification and estimation of the final P3 virus titer, the P3 virus (2–5 μL/10^6 cells) was applied for large-scale infection of 200 × 10^6 Sf9 cells in suspension culture at a density of 1 × 10^6 cells/mL. Cells were harvested 5–6 days post-infection by centrifugation at 500 g for 5 min at room temperature. Protein purification from baculovirus-infected Sf9 cells was performed as previously described. , Cells were lysed in BC buffer (20 mM HEPES pH 7.9, 250 mM NaCl, 10% (v/v) glycerin, 0.4 mM EDTA, 1 mM DTT) containing a protease inhibitor cocktail (Roche) by 3 freeze-thaw cycles. After centrifugation at 11,000 rpm (Sorval SS34 rotor) and 4 °C for 1 h, the supernatant (whole cell protein extract) was incubated with anti-FLAG M2 Affinity Gel (Cytiva) at 4 °C and under agitation for 4 h. Subsequently, beads were washed in BC buffer containing various NaCl concentrations (once in BC with 1 M NaCl, twice in BC with 500 mM NaCl, twice in BC with 250 mM NaCl and twice in BC with 100 mM NaCl). FLAG-tagged proteins were either maintained bead-bound as a 50% (v/v) slurry in BC buffer with 100 mM NaCl and stored at −80 °C or were eluted in the appropriate elution buffer (depending on the subsequent assay) containing 0.25 mg/mL 3xFLAG peptides (Sigma-Aldrich) at 4 °C for 30–45 min. To remove the FLAG-peptides from the eluate, dialysis was performed in elution buffer containing 10% (v/v) glycerol at 4 °C for 4–6 h using Slide-A-Lyzer Dialysis Devices (Thermo Fisher Scientific) according to the manufacturer’s recommendations.
(§4) In the first step, the fluorogenic substrate Nα-Benzoyl-L-arginine-7-amido-4-methylcoumarin (Bz-Arg-AMC, Sigma-Aldrich) undergoes methylation by PRMTs upon the addition of the cofactor SAM. In the second reaction step, trypsin cleaves the nonmethylated substrate, leading to the generation of the 7-amino-4-methylcoumarin product, which can be quantified by subsequent fluorescence measurement (excitation: 355 nm, emission: 460 nm). The first reaction was conducted with bead-bound PRMTs at a total volume of 100 μL. Each condition was performed as a technical triplicate to determine the mean and the standard deviation. […] For the negative controls, SAM was substituted with assay buffer. The incubation was continued at 37 °C and under agitation (1,000 rpm) for a duration of 2 h.

FLAG-tagged PRMT4 = biological target: T2, FLAG-tagged PRMT4 (Mus musculus, UniProt Q9WVG6); test: Fluorescence-based in vitro PRMT assay (F-PRMT assay), PRMT4; details: for Experimental result (PRMT4): vs solvent control = 100%
T2 construct: Full-length FLAG-tagged PRMT protein; made in house; host or cells: Sf9 insect cells (baculovirus)
T2 sequence (Q9WVG6 1-608): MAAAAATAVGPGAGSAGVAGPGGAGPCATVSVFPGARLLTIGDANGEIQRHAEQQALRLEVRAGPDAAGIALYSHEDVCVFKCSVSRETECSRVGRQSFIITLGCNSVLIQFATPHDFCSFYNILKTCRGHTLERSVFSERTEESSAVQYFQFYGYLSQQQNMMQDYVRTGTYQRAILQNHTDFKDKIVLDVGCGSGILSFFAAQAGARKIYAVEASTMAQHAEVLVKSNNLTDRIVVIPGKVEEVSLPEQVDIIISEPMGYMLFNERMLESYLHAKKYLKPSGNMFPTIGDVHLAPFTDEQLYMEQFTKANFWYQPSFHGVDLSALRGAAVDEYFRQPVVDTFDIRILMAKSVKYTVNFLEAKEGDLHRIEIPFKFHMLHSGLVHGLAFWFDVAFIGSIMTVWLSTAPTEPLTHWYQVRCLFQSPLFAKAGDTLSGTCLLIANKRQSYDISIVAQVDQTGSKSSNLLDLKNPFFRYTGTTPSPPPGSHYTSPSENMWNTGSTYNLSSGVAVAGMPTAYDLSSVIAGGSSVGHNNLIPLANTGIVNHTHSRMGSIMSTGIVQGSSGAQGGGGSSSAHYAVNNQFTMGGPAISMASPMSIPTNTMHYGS
Description: as §1, §2, §3, §4

FLAG-tagged PRMT6 = biological target: T3, FLAG-tagged PRMT6 (Homo sapiens, UniProt Q96LA8); test: Fluorescence-based in vitro PRMT assay (F-PRMT assay), PRMT6; details: for Experimental result (PRMT6): vs solvent control = 100%; for Efficacy ±Δ% (PRMT6): mean % difference of activity vs solvent control (100%), - inhibition, + activation
T3 construct: The complete ORFs of human PRMT3 and PRMT6 were inserted; made in house; host or cells: Sf9 insect cells (baculovirus)
Method in brief: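 Baculovirus/Sf9-expressed FLAG-PRMTs (human PRMT3, PRMT6; mouse PRMT4), anti-FLAG purified and used bead-bound, methylated Bz-Arg-AMC with SAM for 2 h at 37 °C, 1,000 rpm. Technical triplicates; no-SAM negative controls.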

FLAG-tagged PRMT1 = biological target: T4, FLAG-tagged PRMT1 (Rattus norvegicus, UniProt Q63009); test: Fluorescence-based in vitro PRMT assay (F-PRMT assay), PRMT1; details: for Experimental result (PRMT1): vs solvent control = 100%
T4 construct: Full-length FLAG-tagged PRMT protein; made in house; host or cells: Sf9 insect cells (baculovirus)

[1] = Table 1, 100 μM compound, 2 μM PRMT, n = 3, racemates used
[2] = Table 1, 100 μM compound, n = 3
[3] = Table 1, 100 μM compound, mean % difference of activity vs solvent control (100%), - inhibition, + activation, n = 3

T1 sequence (O60678 whole entry): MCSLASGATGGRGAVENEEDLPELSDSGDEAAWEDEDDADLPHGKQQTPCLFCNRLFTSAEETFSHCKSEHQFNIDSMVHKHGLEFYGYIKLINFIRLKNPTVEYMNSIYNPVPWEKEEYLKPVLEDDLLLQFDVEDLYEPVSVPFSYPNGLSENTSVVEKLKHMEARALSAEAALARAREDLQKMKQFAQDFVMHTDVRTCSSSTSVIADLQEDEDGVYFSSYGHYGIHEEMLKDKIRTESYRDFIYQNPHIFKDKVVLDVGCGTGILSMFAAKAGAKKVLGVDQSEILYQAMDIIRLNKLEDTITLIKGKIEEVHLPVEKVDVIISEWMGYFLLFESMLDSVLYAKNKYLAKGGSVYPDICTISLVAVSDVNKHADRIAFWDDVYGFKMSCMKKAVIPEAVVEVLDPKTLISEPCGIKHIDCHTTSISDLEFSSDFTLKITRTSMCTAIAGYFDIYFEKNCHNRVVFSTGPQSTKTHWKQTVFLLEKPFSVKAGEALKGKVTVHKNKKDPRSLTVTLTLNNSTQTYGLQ
T3 sequence (Q96LA8 whole entry): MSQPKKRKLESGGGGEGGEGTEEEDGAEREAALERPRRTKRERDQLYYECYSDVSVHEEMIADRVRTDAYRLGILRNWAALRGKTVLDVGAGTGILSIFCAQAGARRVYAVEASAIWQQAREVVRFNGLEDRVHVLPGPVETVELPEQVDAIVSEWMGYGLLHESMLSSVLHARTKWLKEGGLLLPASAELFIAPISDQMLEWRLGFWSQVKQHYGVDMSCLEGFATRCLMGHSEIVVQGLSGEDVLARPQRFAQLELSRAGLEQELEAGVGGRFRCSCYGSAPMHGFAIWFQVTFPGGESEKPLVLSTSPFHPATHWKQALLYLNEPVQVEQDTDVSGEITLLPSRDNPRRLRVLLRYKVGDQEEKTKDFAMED
T4 sequence (Q63009 whole entry): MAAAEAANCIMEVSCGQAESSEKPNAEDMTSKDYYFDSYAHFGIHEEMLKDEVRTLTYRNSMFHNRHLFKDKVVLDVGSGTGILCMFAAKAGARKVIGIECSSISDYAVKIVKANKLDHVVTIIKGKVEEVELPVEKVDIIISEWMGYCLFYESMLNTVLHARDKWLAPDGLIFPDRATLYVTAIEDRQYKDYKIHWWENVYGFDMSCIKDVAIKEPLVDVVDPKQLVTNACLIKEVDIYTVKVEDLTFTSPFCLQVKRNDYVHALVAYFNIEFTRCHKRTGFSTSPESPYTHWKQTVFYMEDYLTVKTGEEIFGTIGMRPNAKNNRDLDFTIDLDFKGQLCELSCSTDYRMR

| Structure (SMILES) | Experimental result (PRMT3) (FLAG-tagged PRMT3; [1]) | Experimental result (PRMT4) (FLAG-tagged PRMT4; [1]) | Experimental result (PRMT6) (FLAG-tagged PRMT6; [1]) | Efficacy ±Δ% (PRMT6) (FLAG-tagged PRMT6; [2]) [%] | Experimental result (PRMT1) (FLAG-tagged PRMT1; [1]) | Experimental result (PRMT3) (FLAG-tagged PRMT3; Table S3, 100 µM compound, n≥3) | Experimental result (PRMT4) (FLAG-tagged PRMT4; Table S3, 100 µM compound, n≥3) | Experimental result (PRMT6) (FLAG-tagged PRMT6; Table S3, 100 µM compound, n≥3) | effect on PRMT1 activity (in words) (FLAG-tagged PRMT1; 100 μM compound) | Experimental result (PRMT1) (FLAG-tagged PRMT1; Table S3, 100 µM compound, n≥3) | Efficacy ±Δ% (PRMT1) (FLAG-tagged PRMT1; [3]) [%] | Efficacy ±Δ% (PRMT4) (FLAG-tagged PRMT4; [3]) [%] |
| --- | --- | --- | --- | --- | --- | --- | --- | --- | --- | --- | --- | --- |
| O=C(CC1COCCN1)N1CCC(N2CCc3ccccc3C2)CC1 (stereo not drawn) [Compound K002JS014] | PRMT3 n.e. (Compounds, which did not significantly affect the catalytic activity (less than ±6% change or not significant p-value), are marked with [drawing 8] (no effect)) | PRMT4 n.e. (Compounds, which did not significantly affect the catalytic activity (less than ±6% change or not significant p-value), are marked with [drawing 8] (no effect)) | PRMT6 i | -8 | PRMT1 n.e. (Compounds, which did not significantly affect the catalytic activity (less than ±6% change or not significant p-value), are marked with [drawing 8] (no effect)) |  |  |  |  |  |  |  |
| O=C1NC(=O)c2ccccc2/C1=C/Nc1ccccc1 [TR-014, (Z)-4-[(Phenylamino)methylene]isoquinoline-1,3(2H,4H)-dione] |  |  |  |  |  | n.e. (did not significantly affect the catalytic activity (less than ±6% change or not significant p-value), are marked with n.e. (no effect)) | n.e. (did not significantly affect the catalytic activity (less than ±6% change or not significant p-value), are marked with n.e. (no effect)) | n.e. (did not significantly affect the catalytic activity (less than ±6% change or not significant p-value), are marked with n.e. (no effect)) | no significant effect | n.e. (did not significantly affect the catalytic activity (less than ±6% change or not significant p-value), are marked with n.e. (no effect)) |  |  |
| N=C(N)NCCSCc1cccc2ccccc12 [Compound K001JS010] | PRMT3 n.e. (Compounds, which did not significantly affect the catalytic activity (less than ±6% change or not significant p-value), are marked with [drawing 8] (no effect)) | PRMT4 n.e. (Compounds, which did not significantly affect the catalytic activity (less than ±6% change or not significant p-value), are marked with [drawing 8] (no effect)) | PRMT6 i |  | PRMT1 i |  |  |  |  |  | -20 |  |
| O=C1NC(=O)c2ccccc2/C1=C/NCc1ccccc1 [TR-03, (Z)-4-[(Benzylamino)methylene]isoquinoline-1,3(2H,4H)-dione] |  |  |  |  |  | n.e. (did not significantly affect the catalytic activity (less than ±6% change or not significant p-value), are marked with n.e. (no effect)) | n.e. (did not significantly affect the catalytic activity (less than ±6% change or not significant p-value), are marked with n.e. (no effect)) | n.e. (did not significantly affect the catalytic activity (less than ±6% change or not significant p-value), are marked with n.e. (no effect)) | slight inhibitory effect |  |  |  |
| CNCc1cn(CC2CCN(c3ccc(C(C)=O)cn3)CC2)nn1 [Compound K002JS003] | PRMT3 n.e. (Compounds, which did not significantly affect the catalytic activity (less than ±6% change or not significant p-value), are marked with [drawing 8] (no effect)) | PRMT4 n.e. (Compounds, which did not significantly affect the catalytic activity (less than ±6% change or not significant p-value), are marked with [drawing 8] (no effect)) | PRMT6 i |  | PRMT1 n.e. (Compounds, which did not significantly affect the catalytic activity (less than ±6% change or not significant p-value), are marked with [drawing 8] (no effect)) |  |  |  |  |  |  |  |
| NCC(=O)Nc1ccc(NC(=O)c2ccco2)cc1 [Compound K002JS013] | PRMT3 n.e. (Compounds, which did not significantly affect the catalytic activity (less than ±6% change or not significant p-value), are marked with [drawing 8] (no effect)) | PRMT4 i | PRMT6 i | -8 | PRMT1 n.e. (Compounds, which did not significantly affect the catalytic activity (less than ±6% change or not significant p-value), are marked with [drawing 8] (no effect)) |  |  |  |  |  |  | -50 |
| CNC[C@@H](O)COc1cccc(OC)c1 (racemic) [Compound K001JS003] | PRMT3 n.e. (Compounds, which did not significantly affect the catalytic activity (less than ±6% change or not significant p-value), are marked with [drawing 8] (no effect)) | PRMT4 i | PRMT6 n.e. (Compounds, which did not significantly affect the catalytic activity (less than ±6% change or not significant p-value), are marked with [drawing 8] (no effect)) |  | PRMT1 n.e. (Compounds, which did not significantly affect the catalytic activity (less than ±6% change or not significant p-value), are marked with [drawing 8] (no effect)) |  |  |  |  |  |  |  |

From PMC13576449, “Small-Molecule Activators of PRMT1: Discovery, SAR Analyses, and Proapoptotic Effects in Pancreatic Cancer Cells” (Journal of Medicinal Chemistry, 2026)
